Assay results from patent US8759500B2, “Crystalline forms of a macrolide, and uses therefor” (Cempra Pharmaceuticals, Inc., priority 2010, dated 2014).
Converted amounts (≈) assume the structure as drawn. Like-named read-outs stand apart in the source and are kept apart here.

What was measured:
[1] = Stability of Form I and Form II under various storage conditions; assay type: physicochemical; conditions: during the entire study, all storage conditions
Excerpt: In each case, the test material was first placed in Primary Packaging Material (LLDPE bag within a HMHDPE/LDPE/LDPE blend bag, and then heat sealed). The Primary Packaging Material was placed in Secondary Packaging Material (HDPE drum). All other impurities were less than 1% at each time point.

[2] = physchem; conditions: pH 6.03, saline or isotonic, thermodynamic from solid
[3] = female, Balb/c, mouse, in vivo, po
[4] = in vivo; conditions: female, Balb/c, mouse, po; for AUC(0-t): AUC 0-24; for half-life: t½
[5] = physchem; conditions: 26 °C, thermodynamic from solid
[6] = Dynamic vapor sorption; assay type: physicochemical
Experimental: The new physical form, Form I of CEM-101 is a crystalline form which may be described by its X-ray powder diffraction pattern. Peaks at approximate positions of about °2θ=8.8, 10.5, 13.2 and 18.6 are representative of this crystalline form. A more detailed analysis of the peaks is described in Tables 1-2 below. […] Water determination by Karl Fisher titration in typical lots is 0.6 to 1.1%. […] Form I of CEM-101 melts at about 200° C. by DSC analysis.
The new physical form, Form II of CEM-101 is a crystalline form which may be described by its X-ray powder diffraction pattern. Peaks at approximate positions of about °2θ=5.6, 7.9, 9.3, 11.7, 12.9 and 16.7 are representative of this crystalline form. A more detailed analysis of the peaks is described in Tables 3-4 below. Based on a single crystal X-ray determination and dynamic vapor sorption analysis, Form II appears to be a non-hygroscopic anhydrous crystalline form that melts at about 225° C. as a single endothermic event by DSC analysis. It is appreciated herein that non-hygroscopic solids, such as Form II described herein, may be advantageous in the preparation of pharmaceutical compositions. Such advantages include improved handling and stability properties in manufacturing, improved lot to lot quality control.

[7] = Balb/c, mouse, in vivo, po, 20 mg/kg
Experimental: (§1) The doses were prepared as 2.0 mg/mL or 10.0 mg/mL in a vehicle of 0.5% (w/v) carboxymethyl cellulose in water and a dose volume of 10 mL/kg b.w. Blood samples were collected at various time points during the next 6 h post dose.

[8] = in vivo; conditions: Balb/c, mouse, po
Experimental: as §1

Structure (SMILES): CC[C@H]1OC(=O)[C@@](C)(F)C(=O)[C@H](C)[C@@H](O[C@@H]2O[C@H](C)C[C@H](N(C)C)[C@H]2O)[C@](C)(OC)C[C@@H](C)C(=O)[C@H](C)[C@H]2N(CCCCn3cc(-c4cccc(N)c4)nn3)C(=O)O[C@]12C [Form I, solithromycin]
- change in color of the test material [1]: no observed change in color
- solubility at 6 h [2]: 1410 µg/mL (≈ 1670 µM)
- AUC 0-24 ([3]; 5 mg/kg): 3.30
- Cmax ([3]; 5 mg/kg): 1430 ng/mL
- Tmax ([3]; 5 mg/kg): 0.6 h
- t½ ([3]; 5 mg/kg): 1.32 h
- AUC 0-24 ([3]; 10 mg/kg): 17.7
- Cmax ([3]; 10 mg/kg): 4680 ng/mL
- Tmax ([3]; 10 mg/kg): 2.4 h
- t½ ([3]; 10 mg/kg): 3.6 h
- AUC 0-24 ([3]; 20 mg/kg): 26.2
- Cmax ([3]; 20 mg/kg): 6640 ng/mL
- Tmax ([3]; 20 mg/kg): 1.6 h
- t½ ([3]; 20 mg/kg): 2.1 h
- AUC(0-t) ([4]; 5 mg/kg): 3160 ng·h/mL
- Cmax ([4]; 5 mg/kg): 1540 ng/mL
- Tmax ([4]; 5 mg/kg): 0.5 h
- half-life ([4]; 5 mg/kg): 1.32 h
- AUC(0-t) ([4]; 10 mg/kg): 17200 ng·h/mL
- Cmax ([4]; 10 mg/kg): 4090 ng/mL
- Tmax ([4]; 10 mg/kg): 2 h
- half-life ([4]; 10 mg/kg): 2.95 h
- AUC(0-t) ([4]; 20 mg/kg): 26700 ng·h/mL
- Cmax ([4]; 20 mg/kg): 5910 ng/mL
- Tmax ([4]; 20 mg/kg): 2 h
- half-life ([4]; 20 mg/kg): 1.91 h
- solubility at 6 h ([5]; pH 1.2, simulated gastric fluid): 4810 µg/mL (≈ 5690 µM)
- solubility at 6 h ([5]; pH 4, aqueous buffer): 4660 µg/mL (≈ 5510 µM)
- solubility at 6 h ([5]; pH 7.4, aqueous buffer): 2220 µg/mL (≈ 2630 µM)
- solubility at 6 h ([5]; pH 9.2, aqueous buffer): 1750 µg/mL (≈ 2070 µM)
- hygroscopicity [6]: partially hygroscopic
- AUCextrap ([7]; female): 24%
- AUCextrap ([7]; male): 24%
- AUC(0-inf) ([8]; female, 20 mg/kg): 70000 ng·h/mL
- AUC(0-t) ([8]; female, 20 mg/kg): 53000 ng·h/mL
- Cmax ([8]; female, 20 mg/kg): 13600 ng/mL
- Tmax ([8]; female, 20 mg/kg): 0.5 h
- concentration at 0 h ([8]; female, 20 mg/kg): 0 ng/mL
- concentration at 0.25 h ([8]; female, 20 mg/kg): 8200 ± 2400 ng/mL
- concentration at 0.5 h ([8]; female, 20 mg/kg): 13600 ± 2000 ng/mL
- concentration at 1 h ([8]; female, 20 mg/kg): 12000 ± 1700 ng/mL
- concentration at 2 h ([8]; female, 20 mg/kg): 11300 ± 1400 ng/mL
- concentration at 4 h ([8]; female, 20 mg/kg): 7700 ± 700 ng/mL
- concentration at 6 h ([8]; female, 20 mg/kg): 4200 ± 400 ng/mL
- AUC(0-t) ([8]; female, 100 mg/kg): 91000 ng·h/mL
- Cmax ([8]; female, 100 mg/kg): 19500 ng/mL
- Tmax ([8]; female, 100 mg/kg): 6 h
- concentration at 0 h ([8]; female, 100 mg/kg): 0 ng/mL
- concentration at 0.25 h ([8]; female, 100 mg/kg): 11900 ± 1700 ng/mL
- concentration at 0.5 h ([8]; female, 100 mg/kg): 11600 ± 1600 ng/mL
- concentration at 1 h ([8]; female, 100 mg/kg): 14700 ± 2300 ng/mL
- concentration at 2 h ([8]; female, 100 mg/kg): 14100 ± 2900 ng/mL
- concentration at 4 h ([8]; female, 100 mg/kg): 16000 ± 2300 ng/mL
- concentration at 6 h ([8]; female, 100 mg/kg): 19500 ± 2300 ng/mL
- AUC(0-inf) ([8]; male, 20 mg/kg): 46000 ng·h/mL
- AUC(0-t) ([8]; male, 20 mg/kg): 35000 ng·h/mL
- Cmax ([8]; male, 20 mg/kg): 9500 ng/mL
- Tmax ([8]; male, 20 mg/kg): 1 h
- concentration at 0 h ([8]; male, 20 mg/kg): 0 ng/mL
- concentration at 0.25 h ([8]; male, 20 mg/kg): 5300 ± 1800 ng/mL
- concentration at 0.5 h ([8]; male, 20 mg/kg): 7700 ± 1600 ng/mL
- concentration at 1 h ([8]; male, 20 mg/kg): 9500 ± 900 ng/mL
- concentration at 2 h ([8]; male, 20 mg/kg): 6400 ± 800 ng/mL
- concentration at 4 h ([8]; male, 20 mg/kg): 5900 ± 600 ng/mL
- concentration at 6 h ([8]; male, 20 mg/kg): 2600 ± 800 ng/mL
- AUC(0-t) ([8]; male, 100 mg/kg): 83500 ng·h/mL
- Cmax ([8]; male, 100 mg/kg): 17400 ng/mL
- Tmax ([8]; male, 100 mg/kg): 4 h
- concentration at 0 h ([8]; male, 100 mg/kg): 0 ng/mL
- concentration at 0.25 h ([8]; male, 100 mg/kg): 11300 ± 2500 ng/mL
- concentration at 0.5 h ([8]; male, 100 mg/kg): 10700 ± 3000 ng/mL
- concentration at 1 h ([8]; male, 100 mg/kg): 13100 ± 3200 ng/mL
- concentration at 2 h ([8]; male, 100 mg/kg): 13400 ± 3100 ng/mL
- concentration at 4 h ([8]; male, 100 mg/kg): 17400 ± 2900 ng/mL
- concentration at 6 h ([8]; male, 100 mg/kg): 12000 ± 2000 ng/mL
